What was measured:
[1] = system: ULK kinase substrate ATG13 (phospho-Serine 318 ATG13) in A549 cells; experiment: pATG13 ELISA in mutant KRas A549 cells in combination with trametinib; assay type: cell-based; conditions: A549 (KRAS mutant) human lung cancer cells, with 250 nM trametinib, overnight
Experimental: (§1) A549 (KRAS mutant) human lung cancer cells (6,000 cells/well) were added to a 384-well tissue-culture treated plate in 50 μL of pre-warmed DMEM medium supplemented with 10% characterized fetal bovine serum (Invitrogen, Carlsbad, Calif.), 100 units/mL penicillin G, and 100 μg/mL streptomycin and allowed to grow overnight at 37° C., 5% CO2, and 95% humidity. The following day, 10 μL of media containing trametinib or DMSO as a control was added to wells. The final concentration of trametinib in wells was 250 nM. A dose response of a test compound (0.6 μL per well) was added. DMSO (0.6 μL) was added to control wells. The plate was briefly shaken to mix wells and then incubated at 37° C. overnight. The next day, the media was aspirated and cells were washed with Dulbecco's Phosphate Buffered Saline (Gibco). Cells were lysed using MPER lysis buffer (Pierce, Rockford, Ill.) containing Halt Phosphatase and Protease Inhibitors (Pierce, Rockford, Ill.) and Phosphatase inhibitor cocktail 2 (Sigma, St. Louis, Mo.) at 4° C. for 10 minutes with shaking.
(§2) Cellular levels of phospho-Serine 318 ATG13 (pATG13) were measured via an ELISA method. Total ATG13 Antibody (Cell Signaling Cat #13273) was used to coat the wells. The plate was incubated at 4° C. overnight and washed with ELISA wash buffer (Biolegend Cat #421601). The wells were then blocked with assay diluent (Biolegend Cat #421203) for 1 hour at room temperature. Plate wells were washed with ELISA wash buffer. Cell lysate was added to wells and incubated at room temperature for 2 hours. Plate wells were washed with ELISA wash buffer. Biotinylated pS318-ATG13 antibody (Rockland Immunochemicals Cat #600-401-C49) was diluted in assay diluent and added to each well and incubated at room temperature for 1 hour. Plate wells were washed with ELISA wash buffer. Streptavidin linked to horseradish peroxidase (Thermo Fisher Cat #21140) was diluted in assay diluent and added to each well and incubated at room temperature for 1 hour. Plate wells were washed with ELISA wash buffer. High sensitivity TMB substrate (Biolegend Cat #421101) was added to each well and incubated at room temperature for 20 minutes. The reaction was stopped with 2N Sulfuric Acid. The plate was analyzed at on a plate reader measuring absorbance at 450 nm and 540 nm (background). Signal was calculated by first subtracting the background absorbance at 540 nm from the absorbance at 450 nm for each well. Next, the background corrected absorbance at 450 nm from blank wells was subtracted from test wells. Data was compared to control wells to determine % ATG13 phosphorylation. GraphPad Prism was used to calculate IC50 values.

[2] = system: ULK kinase substrate ATG13 (phospho-Serine 318 ATG13) in MiaPaCa-2 cells; experiment: pATG13 ELISA in mutant KRas MiaPaCa-2 cells in combination with trametinib; assay type: cell-based; conditions: MiaPaCa-2 human pancreatic cancer cells, with 250 nM trametinib, overnight
Experimental: as §1, with “MiaPaCa-2” for “A549 (KRAS mutant)”, “pancreatic” for “lung”, “(10000” for “(6,000”, “G,” for “G, and”, “streptomycin, and 2.5% Horse Serum” for “streptomycin”
as §2

[3] = biological target: T1, LRRK2 kinase (Homo sapiens, UniProt Q5S007); experiment: Biochemical assay for LRRK2 (coupled pyruvate kinase/lactate dehydrogenase assay); conditions: 26.4 nM LRRK2 (residues 970-2528), peptide substrate, 1 mM ATP
T1 construct: (residues 970-2528; ID NO; 4); purchased Thermo Fisher
T1 sequence (Q5S007 with tags, fused parts or gaps): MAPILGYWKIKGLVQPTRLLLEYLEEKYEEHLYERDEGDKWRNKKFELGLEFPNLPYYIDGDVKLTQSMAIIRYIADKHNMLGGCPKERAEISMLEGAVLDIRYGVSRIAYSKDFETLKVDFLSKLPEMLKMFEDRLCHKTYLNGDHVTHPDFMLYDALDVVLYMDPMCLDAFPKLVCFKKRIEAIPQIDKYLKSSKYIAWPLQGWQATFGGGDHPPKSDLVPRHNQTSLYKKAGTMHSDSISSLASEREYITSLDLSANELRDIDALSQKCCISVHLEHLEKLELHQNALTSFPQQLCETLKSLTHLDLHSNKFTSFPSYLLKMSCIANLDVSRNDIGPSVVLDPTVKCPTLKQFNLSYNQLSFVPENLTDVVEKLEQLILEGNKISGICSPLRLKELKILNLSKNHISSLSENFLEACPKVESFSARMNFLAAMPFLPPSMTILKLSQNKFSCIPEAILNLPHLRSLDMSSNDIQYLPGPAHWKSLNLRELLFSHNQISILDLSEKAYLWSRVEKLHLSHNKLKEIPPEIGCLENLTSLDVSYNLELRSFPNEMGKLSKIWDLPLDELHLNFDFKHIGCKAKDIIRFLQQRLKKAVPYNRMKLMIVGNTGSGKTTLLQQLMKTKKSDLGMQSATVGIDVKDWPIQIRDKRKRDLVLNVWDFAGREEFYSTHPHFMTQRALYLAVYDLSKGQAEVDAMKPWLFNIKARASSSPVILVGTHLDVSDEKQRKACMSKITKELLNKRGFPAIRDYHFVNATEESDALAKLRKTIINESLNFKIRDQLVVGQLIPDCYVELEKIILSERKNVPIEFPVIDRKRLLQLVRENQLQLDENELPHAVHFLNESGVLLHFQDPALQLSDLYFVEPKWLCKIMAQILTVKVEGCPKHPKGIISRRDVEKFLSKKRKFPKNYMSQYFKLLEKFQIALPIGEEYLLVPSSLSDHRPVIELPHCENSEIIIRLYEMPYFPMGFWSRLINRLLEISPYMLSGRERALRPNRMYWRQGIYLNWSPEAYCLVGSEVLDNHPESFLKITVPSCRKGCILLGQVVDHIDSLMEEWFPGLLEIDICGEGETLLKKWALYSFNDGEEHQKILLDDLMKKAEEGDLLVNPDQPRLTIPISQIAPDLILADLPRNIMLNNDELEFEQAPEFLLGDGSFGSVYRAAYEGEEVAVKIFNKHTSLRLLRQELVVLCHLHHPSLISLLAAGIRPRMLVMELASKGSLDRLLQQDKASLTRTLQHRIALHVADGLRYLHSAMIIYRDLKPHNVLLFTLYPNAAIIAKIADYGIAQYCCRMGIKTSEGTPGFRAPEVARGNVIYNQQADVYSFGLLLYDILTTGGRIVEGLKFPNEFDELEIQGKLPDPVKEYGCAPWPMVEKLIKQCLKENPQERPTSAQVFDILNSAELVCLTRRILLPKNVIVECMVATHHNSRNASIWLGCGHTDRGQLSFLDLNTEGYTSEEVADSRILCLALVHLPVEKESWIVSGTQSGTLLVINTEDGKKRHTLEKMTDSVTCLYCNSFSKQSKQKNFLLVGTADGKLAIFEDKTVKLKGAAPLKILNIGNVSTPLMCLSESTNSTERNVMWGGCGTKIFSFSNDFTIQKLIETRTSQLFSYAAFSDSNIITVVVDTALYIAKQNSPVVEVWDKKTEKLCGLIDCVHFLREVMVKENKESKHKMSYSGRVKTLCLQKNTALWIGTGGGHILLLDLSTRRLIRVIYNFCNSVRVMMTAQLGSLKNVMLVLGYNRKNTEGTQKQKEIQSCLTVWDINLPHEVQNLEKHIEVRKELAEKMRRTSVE
Experimental: Activity of LRRK2 kinase was determined spectroscopically using a coupled pyruvate kinase/lactate dehydrogenase assay that continuously monitors the ATP hydrolysis-dependent oxidation of NADH (e.g., Schindler et al. Science (2000) 289: 1938-1942). Assays were conducted in 384-well plates (100 uL final volume) using 26.4 nM LRRK2 (Thermo Fisher), 0.1 mM peptide substrate (RLGRDKYKTLRQIRQ (SEQ ID NO: 6)), 1.5 units pyruvate kinase, 2.1 units lactate dehydrogenase, 1 mM phosphoenol pyruvate, 0.28 mM NADH and 1 mM ATP in assay buffer (100 mM Tris, pH 7.5, 15 mM MgCl2, 0.5 mM DTT, 0.004% (w/v) BSA, and 0.004% Triton X-100). Inhibition of LRRK2 was measured by adding serial diluted test compound (final assay concentration of 1% DMSO). A decrease in absorption at 340 nm was monitored continuously for 6 hours at 30° C. on a multi-mode microplate reader (BioTek). The reaction rate was calculated using the 2-3 h time frame. The reaction rate at each concentration of compound was converted to percent inhibition using controls (i.e. reaction with no test compound and reaction with a known inhibitor) and IC50 values were calculated using software routines in Prism (GraphPad software).

IC50 [1] [nM]	IC50 [2] [nM]	IC50 [3] [nM]	SMILES
300 to 600	100 to 300	100 to 300	Cc1cc(N2CCN(C)CC2)ccc1Nc1ncc(C(F)(F)F)c(NCCCNC(=O)C(C)(C)C)n1 [Example 12]
10 to 100	10 to 100	100 to 300	CN1CCN(c2ccc(Nc3ncc(C(F)(F)F)c(NCCCNC(=O)C4CCC4)n3)c(C3CC3)c2)CC1 [Example 14]

The next lines start with the molecule.

SMILES	IC50 [1] [nM]	IC50 [2] [nM]	IC50 [3] [nM]
CC(C)c1cc(N2CCN(C)CC2)ccc1Nc1ncc(Br)c(NCCCNC(=O)C2CCC2)n1 [Example 8]	100 to 300	100 to 300	600 to 20000
CC(C)c1cc(N2CCN(C)CC2)ccc1Nc1ncc(C(F)(F)F)c(NCCCNC(=O)C2CCC2)n1 [Example 3]	100 to 300	10 to 100	1 to 100
COc1cc(N2CCN(C)CC2)ccc1Nc1ncc(C(F)(F)F)c(NCCCNC(=O)C2CCC2)n1 [Example 4]	100 to 300	100 to 300	1 to 100

From patent US11590134B2, “Aminopyrimidine amide autophagy inhibitors and methods of use thereof” (Deciphera Pharmaceuticals, LLC, priority 2019, dated 2023)
